# Test results: article PMC5412352 (International Journal of Molecular Sciences, 2017)
# “Also recorded” adds a separate entry of the source.
# What was measured:
# [1] = target: human GhrR (hGhrR-eYFP, HEK293 cell membranes) (Homo sapiens, UniProt Q92847); experiment: Competitive radioligand binding assay with [125I-His9]ghrelin at hGhrR membranes
# rat σ2 receptor = target: T1, rat σ2 receptor (Rattus norvegicus, UniProt Q5U3Y7); experiment: Selectivity radioligand displacement, [3H]DTG, rat liver homogenate; format: binding; settings: [3H]DTG + 1 µM dextrallorphan
# T1 construct: rat σ2 receptor = rat liver homogenate; from tissue; host or cells: rat liver homogenate
# T1 sequence (Q5U3Y7 1-176): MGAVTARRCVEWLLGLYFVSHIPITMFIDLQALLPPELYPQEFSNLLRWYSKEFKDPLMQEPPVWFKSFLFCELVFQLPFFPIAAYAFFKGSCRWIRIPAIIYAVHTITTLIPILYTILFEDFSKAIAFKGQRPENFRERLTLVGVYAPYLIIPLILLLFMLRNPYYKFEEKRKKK
# Method: […]
# The incubations were terminated by rapid filtration via glass-fiber filters presoaked in PEI (0.3%, 60 min at rt), and the filter-bound radioactivity was counted by liquid scintillation counting (Tricarb, PerkinElmer).
# [2] = HPLC-based chromatographic hydrophobicity index on immobilized artificial membranes (CHI IAM); format: physicochemical; settings: IAM PC DD2 column, acetonitrile / 50 mM ammonium acetate gradient
# Description: Physicochemical properties of a drug such as lipophilicity and non-specific binding to membranes and plasma proteins are crucial parameters of a potential radiotracer, in particular if it is supposed to pass the blood brain barrier (BBB). The lipophilicity (logD7.4) was estimated using the commercially available ACD/Labs-12.5 software and the non-specific binding was estimated by the high-performance liquid chromatography (HPLC)-based hydrophobicity index at immobilized artificial membranes (CHI IAM) for seven fluorine substituted candidate molecules and (S)-13 without fluorine (Table 3).
# The chromatographic hydrophobicity index on immobilized artificial membranes (CHI IAM) was experimentally determined by a HPLC method described by Valko and co-workers using a IAM PC DD2 column (100 × 4.6 mm, […], Regis Technologies, IL, USA), a gradient of acetonitrile, and 50 mM ammonium acetate as eluent and acetanilide, acetophenone, 1,4-dinitrobenzene, anisole propiophenone, valerophenone, and octanophenone as references.
# muscarinic M1Rs = target: T2, muscarinic M1Rs (Homo sapiens, UniProt P11229); experiment: Commercial screening by Eurofins Panlabs; format: binding
# T2 construct: Eurofins Panlabs (Taiwan), contract screening
# T2 sequence (P11229 1-460): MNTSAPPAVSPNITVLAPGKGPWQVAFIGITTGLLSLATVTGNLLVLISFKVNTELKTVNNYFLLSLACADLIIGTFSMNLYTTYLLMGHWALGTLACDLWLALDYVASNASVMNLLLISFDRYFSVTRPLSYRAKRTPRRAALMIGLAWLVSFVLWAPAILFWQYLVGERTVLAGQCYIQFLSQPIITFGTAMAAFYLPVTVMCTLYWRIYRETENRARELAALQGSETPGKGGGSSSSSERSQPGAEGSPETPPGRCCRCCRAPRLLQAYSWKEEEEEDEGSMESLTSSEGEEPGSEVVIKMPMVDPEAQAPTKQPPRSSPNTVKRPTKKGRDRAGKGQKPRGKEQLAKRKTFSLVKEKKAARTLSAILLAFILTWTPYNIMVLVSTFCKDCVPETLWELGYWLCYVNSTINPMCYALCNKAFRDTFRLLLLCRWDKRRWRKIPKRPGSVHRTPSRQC
# adrenergic α1BRs = experiment: Commercial screening by Eurofins Panlabs; format: binding
# [3] = target: hGhrR (COS7 cells stably expressing hGhrR-eYFP) (Homo sapiens, UniProt Q92847); experiment: cell-based
# GhrR = target: GhrR; set-up: method as in PMID 22342626; settings: previously published value; cited from earlier work
# Sequence of hGhrR (COS7 cells stably expressing hGhrR-eYFP) (Q92847 whole entry): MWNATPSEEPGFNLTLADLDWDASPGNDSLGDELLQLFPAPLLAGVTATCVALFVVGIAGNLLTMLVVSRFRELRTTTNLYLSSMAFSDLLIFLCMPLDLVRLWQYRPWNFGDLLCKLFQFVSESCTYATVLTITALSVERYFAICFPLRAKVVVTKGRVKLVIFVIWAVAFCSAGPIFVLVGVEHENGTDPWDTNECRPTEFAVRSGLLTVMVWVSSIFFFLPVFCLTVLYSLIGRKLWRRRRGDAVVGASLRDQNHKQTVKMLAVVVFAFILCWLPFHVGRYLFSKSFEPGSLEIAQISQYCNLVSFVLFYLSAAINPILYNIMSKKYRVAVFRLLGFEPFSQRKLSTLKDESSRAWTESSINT
# Sequence of human GhrR (hGhrR-eYFP, HEK293 cell membranes) (Q92847 whole entry): as above
structure (smiles),measurement,setting,value
"Cc1nc2ccc(Oc3ccc(Br)cc3F)nc2c(=O)n1C[C@H]1CCCN(C(C)C)C1 [(S)-9, (S)-6-(4-Bromo-2-fluorophenoxy)-3-((1-isopropylpiperidin-3-yl)methyl)-2-methylpyrido[3,2-d]pyrimidin-4(3H)-one]",IC50,[1],2.19 nM
same,Ki,rat σ2 receptor,87 ± 23 nM
same,CHI IAM,[2],43.0
same,significant response (≥50% inhibition or stimulation),muscarinic M1Rs,did not show significant responses; also recorded: did not show significant binding
same,significant response (≥50% inhibition or stimulation),adrenergic α1BRs,did not show significant responses; also recorded: did not show significant binding
same,Emax,"[3]; COS-7, mean ± SEM, refers to ghrelin Emax as 100%, 0% = constitutive receptor activity",~60%
same,EC50,"[3]; EC50, 2 h stimulation in absence of ghrelin, COS7-hGhrR",0.7 nM
same,EC50,"[3]; pEC50, mean ± SEM, 2 h stimulation in absence of ghrelin",0.676 nM
same,Ki,GhrR,0.01 nM
